Read-outs that look alike come from different tables or passages of the source.
Key:
[1] = system: opioid receptors; conditions: background statement; cited from earlier work
[2] = system: mouse; assay: tail flick test (analgesic effect); type: in vivo; conditions: mice, intravenous route
[3] = target: T1, κ receptors (Cavia porcellus, UniProt P41144); assay: affinity to the κ receptors, [3H]U 69593 binding, guinea-pig cerebellum membrane homogenates; conditions: 0.7 nM [3H]U 69593, 80 minutes at 22° C.
T1 construct: homogenates of guinea-pig cerebellum membrane; from tissue; host or cells: guinea-pig cerebellum membrane homogenate
T1 sequence (P41144 whole entry): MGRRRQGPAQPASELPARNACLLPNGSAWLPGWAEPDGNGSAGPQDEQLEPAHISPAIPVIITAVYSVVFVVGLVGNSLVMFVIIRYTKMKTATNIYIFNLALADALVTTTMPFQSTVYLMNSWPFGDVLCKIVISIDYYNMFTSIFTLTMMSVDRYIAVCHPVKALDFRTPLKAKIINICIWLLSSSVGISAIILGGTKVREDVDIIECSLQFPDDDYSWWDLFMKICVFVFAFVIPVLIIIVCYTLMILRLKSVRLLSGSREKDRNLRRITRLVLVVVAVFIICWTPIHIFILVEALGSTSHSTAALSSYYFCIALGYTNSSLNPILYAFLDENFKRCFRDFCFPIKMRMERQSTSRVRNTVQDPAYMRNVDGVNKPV
Method: (§1) The affinity of M6G and of morphine was compared to that of the M6G derivatives according to the invention for the opioid receptors μ (mu) and κ (kappa).
Concentrations of M6G, morphine and the compound according to the invention of 10^−14 to 10^−6 M were used.
(§2) The non-specific binding was determined by means of the addition to the labelled ligands of naloxone 10 μM.
(§3) After incubation, the samples were filtered on glass fibres (GF/B, Packard) previously incubated with 0.3% polyethyleneimine and rinsed several times with 50 mM of cold Tris-HCl using a “96-sample cell harvester” (Unifilter, Packard). The filters were then dried and the radioactivity counted.

[4] = target: T2, μ receptors (Rattus norvegicus, UniProt P33535); assay: affinity to the μ receptors, [3H]DAMGO binding, rat cerebral cortex membrane homogenates
T2 construct: homogenates of rat cerebral cortex membrane; from tissue; host or cells: rat cerebral cortex membrane homogenate
T2 sequence (P33535 whole entry): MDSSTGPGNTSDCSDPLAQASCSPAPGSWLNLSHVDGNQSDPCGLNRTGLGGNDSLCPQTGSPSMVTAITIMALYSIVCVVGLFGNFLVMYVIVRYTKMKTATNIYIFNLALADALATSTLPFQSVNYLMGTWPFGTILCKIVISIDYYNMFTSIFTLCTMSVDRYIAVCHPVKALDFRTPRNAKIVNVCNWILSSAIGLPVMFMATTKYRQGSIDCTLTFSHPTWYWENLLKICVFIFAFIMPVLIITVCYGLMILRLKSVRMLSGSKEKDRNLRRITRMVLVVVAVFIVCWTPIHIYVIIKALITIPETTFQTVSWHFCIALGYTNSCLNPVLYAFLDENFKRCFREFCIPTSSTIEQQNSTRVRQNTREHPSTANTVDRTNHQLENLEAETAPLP
Method: as §1, §2, §3

[5] = Affinity to the K receptors (Ki)

Compound	duration of the action (analgesic activity) [2]	Ki [3, 5] [nM]	Ki [4] [nM]	other results
CN1CC[C@]23c4c5ccc(O[C@@H]6O[C@H](C(=O)O)[C@@H](O)[C@H](O)[C@H]6O)c4O[C@H]2[C@@H](O)C=C[C@H]3[C@H]1C5 [Example M3G, morphine-3-glucuronide]	–	–	–	affinity for the opioid receptors [1]: no affinity
CN1CCC23c4c5ccc(O)c4OC2C(OC2OC(C(=O)O)C(O)C(O)C2O)C=CC3C1C5 (stereo not drawn) [Example M6G, morphine-6-glucuronide]	approximately 100 minutes	224	13.6	affinity for the opioid receptors [1]: high affinity; ED50, the dose which induces 50% of the analgesic effect [2]: 0.55 mg eq./kg
CCN(CC)C(=O)C(CS)NC(=O)C1OC(OC2C=CC3C4Cc5ccc(O)c6c5C3(CCN4C)C2O6)C(O)C(O)C1O (stereo not drawn) [Example M6G-Cys-DEA, M6G-Cys-DEA]	–	1.9	0.36	–
CCOC(=O)C(CS)NC(=O)C1OC(OC2C=CC3C4Cc5ccc(O)c6c5C3(CCN4C)C2O6)C(O)C(O)C1O (stereo not drawn) [Example M6G-Cys-OEt, M6G-Cys-OEt]	–	11.2	1.17	–
COC(=O)C(CS)NC(=O)C1OC(OC2C=CC3C4Cc5ccc(O)c6c5C3(CCN4C)C2O6)C(O)C(O)C1O (stereo not drawn) [Example M6G-Cys-OMe, M6G-Cys-OMe]	–	14	1.04	–
CN1CC[C@]23c4c5ccc(O)c4O[C@H]2[C@@H](O[C@@H]2O[C@H](C(=O)NCCSSCCNC(=O)[C@H]4O[C@@H](O[C@H]6C=CC7[C@H]8Cc9ccc(O)c%10c9[C@@]7(CCN8C)[C@H]6O%10)[C@H](O)[C@@H](O)[C@@H]4O)[C@@H](O)[C@H](O)[C@H]2O)C=CC3[C@H]1C5 (stereo partly drawn) [M6G-Cya-Cya-M6G]	360 min	6.22	0.38	–
CN1CC[C@]23c4c5ccc(O)c4O[C@H]2[C@@H](O[C@@H]2OC(C(=O)NCCS)[C@@H](O)C(O)C2O)C=CC3[C@H]1C5 (stereo partly drawn) [M6G-cysteamide]	–	4.49	2.35	–
CN1CC[C@]23c4c5ccc(O)c4O[C@H]2[C@@H](O)C=C[C@H]3[C@H]1C5 [Morphine]	approximately 100 minutes	–	–	ED50, the dose which induces 50% of the analgesic effect [2]: 2.65 mg eq./kg
M6G-Cya-Cya-PEG20000 [M6G-Cya-Cya-PEG200000]	–	–	–	Ki ([3]; read-out: Affinity to the K receptors (Ki)): 0.72 nM; Ki ([4]; rat cerebral cortex membrane, 1 nM [3H]DAMGO, 60 minutes at 22° C., read-out: Affinity to the μ receptors (Ki)): 0.92 nM

Reference: patent US7365055B2, “Derivatives of morphine-6-glucuronide, pharmaceutical compositions containing them, their preparation method and their uses” (BTG International Limited, priority 2003, dated 2008)
